How the values were obtained:
[1] = tested on: isolated rat bladder strips; test: Inhibition of contractions in isolated rat bladder strips; settings: 15 mM KCl-enhanced contractile activity; for IC50: 0.5 h, 30 minute challenge; for inhibition at 30 µM: read-out: % Inhibition @ 30 μM (maximum percentage inhibition of contractile activity)
Text: Sprague-Dawley rats (150–200 g) were rendered unconscious by CO2 asphyxiation and then euthanized by cervical dislocation. The bladder was removed into warm (37 deg.C.) physiological salt solution (PSS) of the following composition (mM): NaCl, 118.4; KCl, 4.7; CaCl2, 2.5; […]; NaHCO3, 24.9; KH2PO4, 1.2; glucose, 11.1; EDTA, 0.023; gassed with 95% O2; […]; pH 7.4. The bladder was opened and then cut into strips 1–2 mm in width and 7–10 mm in length. The strips are subsequently suspended in a 10 mL tissue bath under an initial resting tension of 1.5 g. The strips were held in place by two surgical clips one of which is attached to a fixed hook while the other is attached to an isometric force transducer. […] The carbachol was then washed out and the tissue allowed to relax to its resting level of activity. Following a further 30 minute period of recovery an additional 15 mM KCl were introduced into the tissue bath. […] Following stabilization of this enhanced level of contractile activity, incremental increases in the concentration of test compound or vehicle were introduced into the tissue bath. Contractile activity was measured for each compound or vehicle concentration during the last minute of a 30 minute challenge.
The isometric force developed by the bladder strips was measured using a […] to elicit 50% inhibition of pre-drug contractile activity (IC50 concentration) and was calculated from this concentration-response curve.

SMILES | IC50 [1] [µM] | melting point [°C] | inhibition at 30 µM [1] [%]
CC(N1C(=O)C(=O)N(c2cccc(C#N)c2)C1=S)C(C)(C)C (stereo not shown) [Example 7, 3-[4,5-Dioxo-2-thioxo-3-(1,2,2-trimethyl-propyl)-imidazolidin-1-yl]-benzonitrile] |  | 168.1 to 168.7 | 29.2
CC(N1C(=O)C(=O)N(c2ccc(Br)cc2)C1=S)C(C)(C)C (stereo not shown) [Example 8, 1-(4-Bromo-phenyl)-2-thioxo-3-(1,2,2-trimethyl-propyl)-imidazolidine-4,5-dione] | 27.2 | 207.1 to 207.9 | 22.4
CN(C)c1ccc(N2C(=O)C(=O)N(CC(C)(C)C)C2=S)cc1.Cl [Example 9, 1-(4-Dimethylamino-phenyl)-3-(2,2-dimethyl-propyl)-2-thioxo-imidazolidine-4,5-dione Hydrochloride] |  | 244 to 246 | 33.2
CC(N1C(=O)C(=O)N(c2ccc(F)cc2F)C1=S)C(C)(C)C (stereo not shown) [Example 10, 1-(2,4-Difluoro-phenyl)-2-thioxo-3-(1,2,2-trimethyl-propyl)-imidazolidine-4,5-dione] |  | 155.2 to 156 | 23.1
CC(C)(C)CN1C(=O)C(=O)N(c2ccc(F)cc2F)C1=S [Example 11, 1-(2,4-Difluoro-phenyl)-3-(2,2-dimethyl-propyl)-2-thioxo-imidazolidine-4,5-dione] |  | 156.2 to 156.9 | 30.6
CC(N1C(=O)C(=O)N(c2ccc(Cl)cc2)C1=S)C(C)(C)C (stereo not shown) [Example 12, 1-(4-Chloro-phenyl)-2-thioxo-3-(1,2,2-trimethyl-propyl)-imidazolidine-4,5-dione] |  | 198.8 to 199.5 | 24.3
CC(N1C(=O)C(=O)N(c2ccc(C(C)(C)C)cc2)C1=S)C(C)(C)C (stereo not shown) [Example 13, 1-(4-tert-Butyl-phenyl)-2-thioxo-3-(1,2,2-trimethyl-propyl)-imidazolidine-4,5-dione] |  | 208.9 to 209.5 | 18.3
CC(C)(C)CN1C(=O)C(=O)N(c2cccnc2)C1=S [Example 15, 1-(2,2-Dimethyl-propyl)-3-pyridin-3-yl-2-thioxo-imidazolidine-4,5-dione] | 3.6 ± 0.8 | 111.4 to 112.8 | 

Further lines, with some results ahead:

IC50 [1] [µM] | melting point [°C] | SMILES | inhibition at 30 µM [1] [%]
3.3 ± 0.08 | 219.6 to 219.9 | CC(N1C(=O)C(=O)N(c2ccc(C#N)cc2)C1=S)C(C)(C)C (racemic) [Example 1, 4-[4,5-Dioxo-2-thioxo-3-(1,2,2-trimethyl-propyl)-imidazolidin-1-yl]-benzonitrile] | 
3.4 ± 0.8 | 128 to 129 | CC(C)(C)CN1C(=O)C(=O)N(c2ccc(C#N)cc2)C1=S [Example 2, 4-[3-(2,2-Dimethyl-propyl)-4,5-dioxo-2-thioxo-imidazolidin-1-yl]-benzonitrile] | 
25.7 ± 3.7 | 173.1 to 174.3 | CCC(C)(C)N1C(=O)C(=O)N(c2ccc(C#N)cc2)C1=S [Example 3, 4-[3-(1,1-Dimethyl-propyl)-4,5-dioxo-2-thioxo-imidazolidin-1-yl]-benzonitrile] | 
30 ± 5 | 200.4 to 201.3 | CC(C)(C)N1C(=O)C(=O)N(c2ccc(C#N)cc2)C1=S [Example 4, 4-(3-tert-Butyl-4,5-dioxo-2-thioxo-imidazolidin-1-yl)-benzonitrile] | 
28.9 ± 2.6 | 172.8 to 173.3 | CCc1cc(C#N)ccc1N1C(=O)C(=O)N(C(C)(C)CC)C1=S [Example 5, 4-[3-(1,1-Dimethyl-propyl)-4,5-dioxo-2-thioxo-imidazolidin-1-yl]-3-ethyl-benzonitrile] | 
4.2 ± 1.4 | 197.6 to 197.8 | C[C@@H](N1C(=O)C(=O)N(c2ccc(C#N)cc2)C1=S)C(C)(C)C [Example 6, 4-[4,5-Dioxo-2-thioxo-3-((1R)-1,2,2-trimethyl-propyl)-imidazolidin-1-yl]-benzonitrile] | 
 | 165.2 to 166.3 | CC(C)(C)CN1C(=O)C(=O)N(c2ccc(F)cc2)C1=S [Example 14, 1-(2,2-Dimethyl-propyl)-3-(4-fluoro-phenyl)-2-thioxo-imidazolidine-4,5-dione] | 15

Reference: patent US7115620B2, “1,3-disubstituted-2-thioxo-imidazolidine-4,5-diones as potassium channel openers” (Wyeth, priority 2001, dated 2006)
